Patent publication US20060257543A1, “Molecules comprising linked organic moieties as flavor modifiers for comestible compositions” (priority 2005, published 2006)

Tests used:
[1] = target: T1, hT1R2/hT1R3 sweet receptor expressed in an HEK293 cell line (Homo sapiens, UniProt Q7RTX0+Q8TE23); assay: In vitro hT1R2/hT1R3 sweet taste receptor activation assay (FLIPR, dose response); format: cell-based; settings: read-out: EC50 for activation of a hT1R2/hT1R3 sweet receptor
T1 construct: expressed in transfected cells; host or cells: HEK293 derivative, clone S-9
T1 sequence (Q8TE23 20-839): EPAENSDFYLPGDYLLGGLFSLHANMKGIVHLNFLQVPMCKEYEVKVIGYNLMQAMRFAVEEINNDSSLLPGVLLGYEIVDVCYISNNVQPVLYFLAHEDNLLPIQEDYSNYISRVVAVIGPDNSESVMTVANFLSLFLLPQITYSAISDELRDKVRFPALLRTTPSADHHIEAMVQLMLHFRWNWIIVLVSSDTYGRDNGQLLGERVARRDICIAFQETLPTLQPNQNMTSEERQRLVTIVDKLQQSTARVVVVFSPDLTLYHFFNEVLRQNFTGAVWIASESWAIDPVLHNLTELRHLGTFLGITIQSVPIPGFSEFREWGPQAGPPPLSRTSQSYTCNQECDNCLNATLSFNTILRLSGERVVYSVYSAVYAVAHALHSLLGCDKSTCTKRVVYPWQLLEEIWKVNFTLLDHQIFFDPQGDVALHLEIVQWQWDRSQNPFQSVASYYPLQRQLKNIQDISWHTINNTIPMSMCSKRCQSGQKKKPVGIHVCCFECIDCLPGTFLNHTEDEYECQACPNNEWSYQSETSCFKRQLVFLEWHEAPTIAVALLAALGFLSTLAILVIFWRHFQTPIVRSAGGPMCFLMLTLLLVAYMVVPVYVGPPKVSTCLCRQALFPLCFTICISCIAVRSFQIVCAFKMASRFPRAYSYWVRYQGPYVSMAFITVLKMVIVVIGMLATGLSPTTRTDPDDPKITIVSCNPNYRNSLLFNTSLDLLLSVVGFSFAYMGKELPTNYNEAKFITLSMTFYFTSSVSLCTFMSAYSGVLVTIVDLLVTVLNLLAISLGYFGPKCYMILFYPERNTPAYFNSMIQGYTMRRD
T1 sequence (Q7RTX0 21-852): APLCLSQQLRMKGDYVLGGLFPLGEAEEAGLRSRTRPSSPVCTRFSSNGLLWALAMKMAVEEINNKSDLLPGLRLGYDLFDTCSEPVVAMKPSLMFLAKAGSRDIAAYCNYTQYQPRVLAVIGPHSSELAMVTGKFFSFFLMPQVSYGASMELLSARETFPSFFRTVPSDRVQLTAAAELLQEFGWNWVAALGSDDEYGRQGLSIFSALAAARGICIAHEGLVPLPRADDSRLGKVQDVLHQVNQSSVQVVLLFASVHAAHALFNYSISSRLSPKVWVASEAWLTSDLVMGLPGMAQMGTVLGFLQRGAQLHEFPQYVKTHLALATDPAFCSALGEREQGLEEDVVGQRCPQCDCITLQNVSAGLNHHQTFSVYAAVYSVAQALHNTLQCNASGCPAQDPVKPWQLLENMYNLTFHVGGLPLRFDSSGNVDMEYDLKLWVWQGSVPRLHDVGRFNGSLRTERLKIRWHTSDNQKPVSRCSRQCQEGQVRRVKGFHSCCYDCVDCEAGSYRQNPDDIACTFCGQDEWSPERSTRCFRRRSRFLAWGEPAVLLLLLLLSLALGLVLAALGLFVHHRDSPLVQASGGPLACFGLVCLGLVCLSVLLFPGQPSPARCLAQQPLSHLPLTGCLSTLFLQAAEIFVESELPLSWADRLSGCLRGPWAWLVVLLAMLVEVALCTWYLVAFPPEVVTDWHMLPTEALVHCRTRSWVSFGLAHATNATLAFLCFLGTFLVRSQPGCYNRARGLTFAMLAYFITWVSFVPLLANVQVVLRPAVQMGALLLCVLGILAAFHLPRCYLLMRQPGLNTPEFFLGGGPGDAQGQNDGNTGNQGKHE
Description: An HEK293 cell line derivative (see Chandrashekar, J., Mueller, K. L., Hoon, M. A., Adler, E., Feng, L., Guo, W., Zuker, C. S., Ryba, N. J.,. Cel,l 2000, 100, 703-711.) that stably expresses Gα15 and hT1R2/hT1R3 (see Li, X., Staszewski, L., Xu, H., Durick, K., Zoller, M., Adler, E. Proc Natl Acad Sci USA 2002, 99, 4692-4696, and PCT Publication No. WO 03/001876) was used to identify compounds with sweet taste enhancing properties. These references are hereby incorporated herein by reference for their methods of preparing and maintaing the cell lines discussed below, and for their methods for screeing compounds that inhibit the biological receptors.
Compounds covered in this document were initially selected based on their activity on the hT1R2/hT1R3—HEK293-Gα15 cell line (Li, et al. vide supra). Activity was determined using an automated fluorometric imaging assay on a FLIPR instrument (Fluorometric Intensity Plate Reader, Molecular Devices, Sunnyvale, Calif.) (designated FLIPR assay). Cells from one clone (designated S-9 cells) were seeded into 384-well plates (at approximately 50,000 cells per well) in a medium containing DMEM Low Glucose (Invitrogen, Carlsbad, Calif.), 10% dialyzed fetal bovine serum (Invitrogen, Carlsbad, Calif.), 100 Units/ml Penicillin G, and 100 μg/ml Streptomycin (Invitrogen, Carlsbad, Calif.) (Li, et al. vide supra) see also World Patent No. WO 03/001876 A2). S-9 cells were grown for 24 hours at 37° C. S-9 cells were then loaded with the calcium dye Fluo-3AM (Molecular Probes, Eugene, Oreg.), 4 μM in a phosphate buffered saline (D-PBS) (Invitrogen, Carlsbad, Calif.), for 1 hour at room temperature. After replacement with 25 μl D-PBS, stimulation was performed in the FLIPR instrument and at room temperature by the addition of 25 μl D-PBS supplemented with different stimuli at concentrations corresponding to twice the desired final level. Receptor activity was quantified by determining the maximal fluorescence increases (using a 480 nm excitation and 535 nm emission) after normalization to basal fluorescence intensity measured before stimulation.
For dose-responses analysis, stimuli were presented in duplicates at 10 different concentrations ranging from 60 nM to 30 μM. Activities were normalized to the response obtained with 400 mM D-fructose, a concentration that elicits maximum receptor response. EC50s were determined using a non-linear regression algorithm (using a Senomyx, Inc. software), where the Hill slope, bottom asymptotes and top asymptotes were allow to vary. Identical results were obtained when analyzing the dose-response data using commercially available software for non-linear regression analysis such as GraphPad PRISM (San Diego, Calif.).

CC(C)Oc1ccc(NC(=S)NCc2ccsc2)cc1 [Example 3, 1-(4-Isopropoxyphenyl)-3-(thiophen-3-ylmethyl)thiourea] showed an EC50 [1] of 150 nM and a melting point of 80.5 to 81.5 °C.

For COc1ccc(CNc2ccccc2C)cc1O [Example 12, 5-((o-toluidino)methyl)-2-methoxyphenol], the EC50 [1] was 2980 nM and the melting point was 104 to 105 °C.

For CC(C)Oc1ccc(NC(=S)NCc2ccoc2)cc1 [Example 4, 1-(furan-3-ylmethyl)-3-(4-isopropoxyphenyl)thiourea], the EC50 [1] was 230 nM and the melting point was 89 to 90 °C.
